Assay results from patent publication EP1946758A1, “Treatment of acute myeloid leukemia” (PIERRE FABRE MEDICAMENT, priority 2007, dated 2008).

Experiments:
[1] = Stability in water (D2O solution followed by proton NMR); type: physicochemical; details: room temperature; for change in the NMR spectrum: 3 mg/ml
Procedure: Sodium triptolide succinate was dissolved in D2O, and the aqueous solution was stored at room temperature.
Stability in Water: a solution of sodium triptolide succinate in D2O can be prepared at a concentration of 3 mg/ml and stored at room temperature. The solution can be analyzed by ^1H NMR at intervals of 1, 3, 5, 15, 45, 90, 180 minutes; 1, 7, 14 days; and 1, 2, 3, and 5 months.

[2] = system: relapsed or refractory acute myeloid leukemia; assay: Exploratory dose escalation treatment of patients with relapsed or refractory leukemias; type: in vivo
Procedure: PG490-88 Na is a 14-succinyl triptolide sodium salt of triptolide (PG490).
In this example, 29 patients with relapsed or refractory leukemias were treated. Median age was 57 years (range : 30 - 79). Sixty two percent of patients were male. Twelve dose levels from 0.150 to 13 mg/m^2/day were tested in one patient each, with an increase by 50% for each successive cohort of patients until one dose limiting toxicity (DLT) was observed. Thereafter, dose escalation was switched to a standard design using cohorts of 3 to 6 patients per dose level, with 30% dose increments.
Among all the patients, 6 […] presented with a disease refractory to standard induction chemotherapy and the others were in 1st or 2nd relapse who had failed salvage therapy for 9 of them. […]

[3] = Stability in blood serum (hydrolysis followed by TLC); type: in vitro ADME; details: rat serum, 37°C
Procedure: The stability of triptolide succinate in blood serum was determined. In this study, a solution of triptolide succinate (the free acid of the sodium triptolide succinate) in DMSO was mixed with rat serum and incubated at 37°C. The mixture was assayed periodically by thin layer chromatography (TLC) to follow the hydrolysis of the triptolide succinate over time. […] After 15 minutes, the triptolide succinate spot was gone and a new spot corresponding to triptolide had appeared (Rf =0.60). Finally, after 45 minutes, the triptolide spot had also disappeared, and only low Rf material (blood serum components and decomposition products) remained.
Stability in Blood Serum: a solution of triptolide succinate (free acid) in DMSO can be made at a concentration of 25 mg/ml, and 0.1 ml of this solution can be mixed with 0.5 ml of rat serum. The mixture was incubated at 37°C. Aliquots of the mixture should then be taken at 1, 3, 5, 15, 45 minutes and 18 hours and analyzed by thin layer chromatography (TLC). The TLC plates can be developed in 1:5 CH2Cl2/Et2O. After development, the plates can be treated with iodine vapor and examined under a UV lamp. Triptolide and triptolide succinate can be used as reference compounds (Rf =0.60, and 0.45, respectively).
After 15 minutes, the triptolide succinate spot may be gone (Rf =0.45), and a new spot corresponding to triptolide may have appeared (Rf =0.60). After 45 minutes, the triptolide spot may also disappear, and only low Rf material (blood serum components and decomposition products) may remain.

[4] = patients with relapsed or refractory leukemias
[5] = recommended dose of 5.7 mg/m^2/day

CC(C)[C@]12O[C@H]1[C@@H]1O[C@]13[C@]1(O[C@H]1C[C@H]1C4=C(CC[C@@]13C)C(=O)OC4)[C@@H]2OC(=O)CCC(=O)[O-].[Na+] [PG490-88 Na, 14-succinyl triptolide sodium salt]
change in the NMR spectrum ([1]; after 5 months): Some decomposition
change in the NMR spectrum ([1]; during the first three months): No appreciable change
stability in aqueous solution (proton NMR spectra) ([1]; after five months): some decomposition
stability in aqueous solution (proton NMR spectra) ([1]; after three months): unchanged
cerebellar toxicity, patients ([2]; 7 mg/m^2/day (one grade 2 and two grade 4)): 3 patients
cerebellar toxicity, patients ([2]; 8.5 mg/m^2/day (two grade 4)): 2 patients
response ([2]; another patient, 8.5 mg/m^2/day, after 2 cycles of treatment): CRp: complete remission without full platelets recovery
cerebellar toxicity, patients ([2]; doses > 5.7 mg/m^2/day): 5 patients
overall response on relapsed or refractory acute myeloid leukemia ([2]; exploratory dose escalation experiments): very good response
response ([2]; one patient, 5.7 mg/m^2/day, day 15 of the treatment, one cycle): complete remission (CR) with pancytopenia
haematological toxicity ([2]; patient with CRp, 8.5 mg/m^2/day, after cycle 2): no haematological toxicity
haematological toxicity ([2]; patient with CRp, 8.5 mg/m^2/day, after the first cycle): grade 4 aplasia lasting 20 days
maximum tolerated dose (MTD) [2, 4]: 7 mg/m^2/day
recommended dose for this regimen [2, 4]: 5.7 mg/m^2/day
grade 3 leucopenia (related adverse event), patients [2, 5]: 1 patient
other related adverse events [2, 5]: mild diarrhoea, nausea and vomiting
haematological toxicity ([2]; third patient (complete remission), 8.5 mg/m^2/day, after the first cycle): moderate leucopenia (grade 1 lasting 2 days)
haematological toxicity ([2]; third patient (complete remission), 8.5 mg/m^2/day, during the second cycle): no haematotoxicity
response ([2]; third patient, 8.5 mg/m^2/day, after 2 cycles of treatment): complete remission

Triptolide Succinate
time for hydrolysis in serum to release free triptolide [3]: less than an hour
species detected by TLC ([3]; after 3 minutes): only triptolide succinate may be detected
triptolide succinate spot (Rf =0.45) by TLC ([3]; after 15 minutes): gone
triptolide succinate spot (Rf =0.45) by TLC ([3]; within the first 3 to 5 minutes): most of the triptolide succinate remained
